Experimental data reported in ChEMBL document CHEMBL4831493 (Eur J Med Chem, 2021).
Activity calls are given as the source filed them. The rule behind the calls is not given here.

What was measured:
[1] = molecular target: T1, Acetylcholinesterase (Mus musculus) (UniProt P21836); conditions: ICR, dose 10.0 mg/kg, time 1.5 hrs
T1 sequence (whole entry): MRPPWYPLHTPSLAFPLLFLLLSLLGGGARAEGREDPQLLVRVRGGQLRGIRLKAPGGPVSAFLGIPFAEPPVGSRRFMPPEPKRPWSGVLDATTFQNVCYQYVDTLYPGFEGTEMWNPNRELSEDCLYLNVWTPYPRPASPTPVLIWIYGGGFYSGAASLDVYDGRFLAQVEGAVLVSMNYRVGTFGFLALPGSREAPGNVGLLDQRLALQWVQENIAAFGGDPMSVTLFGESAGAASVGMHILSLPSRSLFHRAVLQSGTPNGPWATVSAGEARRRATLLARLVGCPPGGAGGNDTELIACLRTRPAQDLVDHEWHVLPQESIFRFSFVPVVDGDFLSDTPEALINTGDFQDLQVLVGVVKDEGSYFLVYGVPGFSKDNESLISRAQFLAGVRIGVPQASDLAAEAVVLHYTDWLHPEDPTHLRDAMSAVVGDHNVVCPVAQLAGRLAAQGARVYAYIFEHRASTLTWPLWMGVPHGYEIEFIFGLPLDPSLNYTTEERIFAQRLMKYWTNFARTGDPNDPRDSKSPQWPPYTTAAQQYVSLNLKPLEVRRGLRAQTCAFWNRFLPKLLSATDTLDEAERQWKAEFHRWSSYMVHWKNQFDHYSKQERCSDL

[2] = Tmax in Sprague-Dawley rat at 10 mg/kg, po measured up to 24 hrs by LC-MS/MS analysis; format: ADME, organism-based; conditions: in vivo
[3] = molecular target: Glycogen synthase kinase-3 beta (Homo sapiens, UniProt P49841); test: Inhibition of human recombinant N-terminal His-tagged GSK3beta expressed in Escherichia coli using RRRPASVPPSPSLS RHS(pS)HQRR as substrate incubated for 30 mins in presence of ATP by Kinase-Glo reagent based luminescence assay
Glycogen synthase kinase-3 beta, sequence (P49841 whole entry): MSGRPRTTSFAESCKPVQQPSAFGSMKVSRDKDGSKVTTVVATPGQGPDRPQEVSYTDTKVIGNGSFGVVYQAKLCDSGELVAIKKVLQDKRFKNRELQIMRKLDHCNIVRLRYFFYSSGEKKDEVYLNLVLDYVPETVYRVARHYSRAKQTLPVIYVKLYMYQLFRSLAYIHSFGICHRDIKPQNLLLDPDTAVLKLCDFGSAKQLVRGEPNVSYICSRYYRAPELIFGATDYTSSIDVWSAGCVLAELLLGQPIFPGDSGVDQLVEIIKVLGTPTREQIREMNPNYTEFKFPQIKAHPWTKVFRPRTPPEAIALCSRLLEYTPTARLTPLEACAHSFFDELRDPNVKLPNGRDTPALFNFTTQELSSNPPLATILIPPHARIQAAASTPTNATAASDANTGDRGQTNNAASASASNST

[4] = molecular target: Cyclin-dependent kinase 4 (Homo sapiens) (UniProt P11802); test: Inhibition of CDK4 (unknown origin) at 0.3 uM
Cyclin-dependent kinase 4 (Homo sapiens), sequence (P11802 whole entry): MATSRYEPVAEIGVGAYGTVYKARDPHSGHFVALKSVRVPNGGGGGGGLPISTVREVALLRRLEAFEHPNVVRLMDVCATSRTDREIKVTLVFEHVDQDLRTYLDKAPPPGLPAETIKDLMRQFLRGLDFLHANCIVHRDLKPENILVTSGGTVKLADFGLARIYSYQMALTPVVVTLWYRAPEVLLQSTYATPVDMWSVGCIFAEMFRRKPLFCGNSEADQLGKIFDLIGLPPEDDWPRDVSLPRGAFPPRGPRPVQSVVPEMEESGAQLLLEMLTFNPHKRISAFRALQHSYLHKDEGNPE

[5] = molecular target: Glycogen synthase kinase-3 beta (Mus musculus) (UniProt Q9WV60); test: Inhibition of GSK3beta in glutamate-induced mouse HT-22 cells assessed as increase in synaptophysin level at 0.6 uM pretreated with glutamate for 24 hrs followed by compound treatment by immunocytochemistry assay; format: cell-based
Glycogen synthase kinase-3 beta (Mus musculus), sequence (Q9WV60 whole entry, looked up): as the sequence (P49841 whole entry) above, with T390P, T392A, A400T, T402A counted along it

Acetylcholinesterase [6] = molecular target: Acetylcholinesterase (Electrophorus electricus, UniProt O42275); test: Inhibition of electric eel recombinant AChE preincubated for 1 min in presence of DNTB followed by addition of acetylthiocholine iodide substrate and measured after 20 mins by Ellman's method
Acetylcholinesterase (Electrophorus electricus, UniProt O42275), sequence (O42275 whole entry): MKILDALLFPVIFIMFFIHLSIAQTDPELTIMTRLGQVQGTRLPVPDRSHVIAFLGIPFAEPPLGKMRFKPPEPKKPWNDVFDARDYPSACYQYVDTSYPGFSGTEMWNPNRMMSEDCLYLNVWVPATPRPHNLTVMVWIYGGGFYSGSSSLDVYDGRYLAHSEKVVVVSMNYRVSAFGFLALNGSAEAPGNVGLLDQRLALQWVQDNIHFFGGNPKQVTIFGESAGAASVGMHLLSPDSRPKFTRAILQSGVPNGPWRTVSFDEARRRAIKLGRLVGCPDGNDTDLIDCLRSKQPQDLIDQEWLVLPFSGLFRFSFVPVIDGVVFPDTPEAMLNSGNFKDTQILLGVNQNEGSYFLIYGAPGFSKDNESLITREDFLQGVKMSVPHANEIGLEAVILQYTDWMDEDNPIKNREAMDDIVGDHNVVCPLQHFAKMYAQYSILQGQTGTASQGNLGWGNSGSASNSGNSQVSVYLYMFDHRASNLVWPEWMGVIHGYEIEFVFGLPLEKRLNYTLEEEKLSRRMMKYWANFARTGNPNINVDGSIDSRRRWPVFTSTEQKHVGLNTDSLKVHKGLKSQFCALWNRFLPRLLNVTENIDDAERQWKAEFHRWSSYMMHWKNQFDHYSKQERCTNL

Rattus norvegicus = test: Neuroprotective activity against amyloid beta (1 to 42)-induced suppression of synaptophysin in Sprague-Dawley rat at 5 mg/kg/day, po measured after 5 days by immunohistochemistry assay; format: functional, organism-based; conditions: time 5.0 day
[7] = molecular target: Cholinesterases; ACHE & BCHE (Homo sapiens) (UniProt P06276+P22303); test: Selectivity index, ratio of IC50 for BChE (unknown origin) to IC50 for human recombinant AChE; format: protein assay
Cholinesterases; ACHE & BCHE (Homo sapiens), sequence (P06276 whole entry, looked up): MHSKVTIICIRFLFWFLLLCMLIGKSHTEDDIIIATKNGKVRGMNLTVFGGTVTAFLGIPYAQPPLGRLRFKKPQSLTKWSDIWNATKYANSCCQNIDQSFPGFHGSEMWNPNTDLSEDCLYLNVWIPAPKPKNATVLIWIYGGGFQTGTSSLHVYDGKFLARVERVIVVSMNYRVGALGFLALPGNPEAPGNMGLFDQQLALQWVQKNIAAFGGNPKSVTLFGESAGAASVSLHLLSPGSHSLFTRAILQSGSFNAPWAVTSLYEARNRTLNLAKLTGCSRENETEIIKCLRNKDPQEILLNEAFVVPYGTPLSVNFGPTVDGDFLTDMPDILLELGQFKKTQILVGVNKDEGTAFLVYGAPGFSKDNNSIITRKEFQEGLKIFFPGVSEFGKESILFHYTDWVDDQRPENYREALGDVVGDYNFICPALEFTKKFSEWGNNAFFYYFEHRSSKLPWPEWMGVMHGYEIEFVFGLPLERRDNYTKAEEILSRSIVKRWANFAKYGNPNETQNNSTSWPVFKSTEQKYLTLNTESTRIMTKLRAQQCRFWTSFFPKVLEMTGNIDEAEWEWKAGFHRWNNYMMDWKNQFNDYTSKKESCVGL
Cholinesterases; ACHE & BCHE (Homo sapiens), sequence (P22303 whole entry, looked up): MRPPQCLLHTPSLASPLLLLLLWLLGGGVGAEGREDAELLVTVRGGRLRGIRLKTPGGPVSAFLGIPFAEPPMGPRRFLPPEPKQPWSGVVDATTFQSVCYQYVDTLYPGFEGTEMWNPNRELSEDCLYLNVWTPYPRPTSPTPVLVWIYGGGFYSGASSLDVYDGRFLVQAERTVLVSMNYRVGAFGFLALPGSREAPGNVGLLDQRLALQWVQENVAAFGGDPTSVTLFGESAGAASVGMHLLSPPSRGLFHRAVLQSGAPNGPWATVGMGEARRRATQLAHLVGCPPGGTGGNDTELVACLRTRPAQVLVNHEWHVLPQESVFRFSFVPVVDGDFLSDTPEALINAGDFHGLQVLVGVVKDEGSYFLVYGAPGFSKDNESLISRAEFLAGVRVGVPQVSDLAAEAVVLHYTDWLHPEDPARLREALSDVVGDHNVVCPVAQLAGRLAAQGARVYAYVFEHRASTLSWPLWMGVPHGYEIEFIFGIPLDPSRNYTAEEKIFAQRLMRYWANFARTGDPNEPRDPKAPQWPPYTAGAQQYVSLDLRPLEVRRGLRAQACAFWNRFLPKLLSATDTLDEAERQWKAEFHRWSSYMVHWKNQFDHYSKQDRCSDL

[8] = Cmax in Sprague-Dawley rat at 1 mg/kg, iv measured up to 24 hrs by LC-MS/MS analysis; format: ADME, organism-based; parameters: route intravenous, dose 1 mg/kg, time <=24; conditions: in vivo
[9] = molecular target: Mitogen-activated protein kinase 13 (Homo sapiens) (UniProt O15264); test: Inhibition of p38delta (unknown origin) at 0.3 uM
[10] = molecular target: Cyclin-dependent kinase 7 (Homo sapiens) (UniProt P50613); test: Inhibition of CDK7 (unknown origin) at 0.3 uM
[11] = Drug level in ICR mouse plasma at 10 mg/kg, po measured after 1.5 hrs by LC/MS/MS analysis; format: ADME, organism-based
Acetylcholinesterase [12] = molecular target: Acetylcholinesterase (Homo sapiens, UniProt P22303); test: Inhibition of human recombinant AChE preincubated for 1 min in presence of DNTB followed by addition of acetylthiocholine iodide substrate and measured after 20 mins by Ellman's method
Mus musculus [13] = test: (§1) Improvement in learning and spatial memory in amyloid beta (1 to 42)-induced mouse model of Alzheimer's disease at 10 mg/kg/day, po pretreated with amyloid beta42 for 3 days followed by treatment with compound and measured after 9 days measured by Y-maze test; format: functional, organism-based; conditions: time 9.0 day
HT-22 = test: Neuroprotective activity in mouse HT-22 cells assessed as glutamate-induced cell mortality at 6 uM preincubated for 1 hr followed by addition of glutamate and measured after 24 hrs (reference value: 58%); format: functional; conditions: time 25 hrs
[14] = Oral bioavailability in Sprague-Dawley rat at 10 mg/kg measured up to 24 hrs by LC-MS/MS analysis; format: ADME, organism-based; conditions: in vivo
Mus musculus [15] = test: Cognitive enhancing effect in mouse model of scopolamine-induced amnesia assessed as escape latency time at 10 mg/kg/day, po measured by Morris water maze test (reference value: 17.9 sec); format: functional
[16] = Cmax in Sprague-Dawley rat at 10 mg/kg, po measured up to 24 hrs by LC-MS/MS analysis; format: ADME, organism-based; parameters: route oral, dose 10 mg/kg, time <=24; conditions: in vivo
Mus musculus [17] = test: as §1, with “disease assessed as increase in spontaneous alteration” for “disease”; format: functional, organism-based; conditions: time 9.0 day
[18] = molecular target: Mitogen-activated protein kinase 3 (Homo sapiens) (UniProt P27361); test: Inhibition of ERK1 (unknown origin) at 0.3 uM
Mitogen-activated protein kinase 3 (Homo sapiens), sequence (P27361 whole entry): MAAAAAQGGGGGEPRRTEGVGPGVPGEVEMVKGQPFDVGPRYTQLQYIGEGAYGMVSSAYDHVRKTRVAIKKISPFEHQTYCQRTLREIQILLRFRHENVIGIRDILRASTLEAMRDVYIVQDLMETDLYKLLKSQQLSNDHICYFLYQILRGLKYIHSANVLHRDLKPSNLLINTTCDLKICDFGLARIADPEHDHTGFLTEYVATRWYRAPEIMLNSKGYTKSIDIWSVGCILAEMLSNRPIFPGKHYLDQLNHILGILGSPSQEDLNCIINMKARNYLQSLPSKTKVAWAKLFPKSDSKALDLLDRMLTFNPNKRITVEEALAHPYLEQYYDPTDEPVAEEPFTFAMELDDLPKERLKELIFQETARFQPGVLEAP

Cholinesterase = Cholinesterase (Homo sapiens, UniProt P06276); test: Inhibition of BChE (unknown origin)
Cholinesterase, sequence (P06276 whole entry): as the sequence (P06276 whole entry, looked up) above

[19] = Drug level in ICR mouse brain at 10 mg/kg, po measured after 1 hr by LC/MS/MS analysis; format: ADME, organism-based; conditions: read-out: Ct
[20] = molecular target: Mitogen-activated protein kinase 14 (Homo sapiens) (UniProt Q16539); test: Inhibition of p38alpha (unknown origin) at 0.3 uM
[21] = molecular target: Mitogen-activated protein kinase 1 (Homo sapiens) (UniProt P28482); test: Inhibition of ERK2 (unknown origin) at 0.3 uM
Mitogen-activated protein kinase 1 (Homo sapiens), sequence (P28482 whole entry): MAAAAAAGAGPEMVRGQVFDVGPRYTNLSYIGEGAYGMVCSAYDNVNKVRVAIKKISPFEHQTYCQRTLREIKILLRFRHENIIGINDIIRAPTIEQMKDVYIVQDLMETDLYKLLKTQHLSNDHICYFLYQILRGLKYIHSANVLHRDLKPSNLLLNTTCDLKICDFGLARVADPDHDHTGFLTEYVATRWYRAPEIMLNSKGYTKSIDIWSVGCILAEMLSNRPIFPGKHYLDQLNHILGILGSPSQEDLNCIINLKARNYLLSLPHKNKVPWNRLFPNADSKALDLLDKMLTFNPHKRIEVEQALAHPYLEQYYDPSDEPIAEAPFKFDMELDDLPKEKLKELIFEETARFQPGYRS

[22] = molecular target: Glycogen synthase kinase-3 beta (Mus musculus) (UniProt Q9WV60); test: Inhibition of GSK3beta in mouse N2a cells overexpressing human tau assessed as decrease in tau phosphorylation at Ser 396 residue measured after 6 hrs by Western blot assay; format: cell-based
[23] = AUC (0 to infinity) in Sprague-Dawley rat at 1 mg/kg, iv measured up to 24 hrs by LC-MS/MS analysis; format: ADME, organism-based; parameters: route intravenous, dose 1 mg/kg, time <=24; conditions: in vivo
[24] = Half life in Sprague-Dawley rat at 1 mg/kg, iv measured up to 24 hrs by LC-MS/MS analysis; format: ADME, organism-based; conditions: in vivo
[25] = Drug level in ICR mouse plasma at 10 mg/kg, po measured after 1 hr by LC/MS/MS analysis; format: ADME, organism-based
[26] = Toxicity in amyloid beta (1 to 42)-induced mouse model of Alzheimer's disease assessed as morphological changes in liver tissue at 10 mg/kg/day, po measured after 9 days by HE staining method; format: organism-based; conditions: in vivo, 216 h, time 9 day
[27] = Half life in Sprague-Dawley rat at 10 mg/kg, po measured up to 24 hrs by LC-MS/MS analysis; format: ADME, organism-based; conditions: in vivo
[28] = molecular target: Cyclin-dependent kinase 6 (Homo sapiens) (UniProt Q00534); test: Inhibition of CDK6 (unknown origin) at 0.3 uM
Cyclin-dependent kinase 6 (Homo sapiens), sequence (Q00534 whole entry): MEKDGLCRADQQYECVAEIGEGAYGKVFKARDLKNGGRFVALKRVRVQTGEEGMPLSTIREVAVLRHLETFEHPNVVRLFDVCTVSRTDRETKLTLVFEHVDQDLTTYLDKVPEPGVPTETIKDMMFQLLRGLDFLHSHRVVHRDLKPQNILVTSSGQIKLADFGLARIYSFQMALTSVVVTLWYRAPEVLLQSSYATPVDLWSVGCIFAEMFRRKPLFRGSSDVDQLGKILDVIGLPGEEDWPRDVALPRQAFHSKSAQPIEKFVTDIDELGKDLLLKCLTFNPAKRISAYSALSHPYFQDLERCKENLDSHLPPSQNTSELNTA

## O=C(Nc1cncc(OCC2CCN(Cc3ccc(F)cc3)CC2)c1)c1ccnc(NC(=O)C2CC2)c1
[1]
  inhibition: 85.5%
[2]
  Tmax: 1.9 h
[3]
  IC50: 31 nM
[4]
  inhibition: inactive
[5]
  inhibition: Active
Acetylcholinesterase [6]
  IC50: 11.8 nM
Rattus norvegicus
  Activity: Active
[7]
  Selectivity Index: 5300
[8]
  Cmax: 200 ng/mL
[9]
  inhibition: inactive
[10]
  inhibition: inactive
[11]
  concentration at 1.5 h: 343 ng/g
Acetylcholinesterase [12]
  IC50: 1 nM
Mus musculus [13]
  Activity: Active
HT-22
  Activity: 66%
[14]
  bioavailability: 31%
Mus musculus [15]
  Time: 18.1 s
[16]
  Cmax: 159 ng/mL
Mus musculus [17]
  Activity: Active
[18]
  inhibition: inactive
Cholinesterase
  IC50: 5300 nM
[19]
  concentration at 1 h: 62 ng/g
[20]
  inhibition: inactive
[21]
  inhibition: inactive
[22]
  inhibition: Dose-Dependent Effect
[23]
  AUC(0-inf): 407 ng·h/mL
[24]
  half-life: 5.2 h
[25]
  concentration at 1 h: 405 ng/g
[26]
  Activity: Non-Toxic
[27]
  half-life: 7.6 h
[28]
  inhibition: inactive
